Experiments:
Assay type in all cases: cell-based
SARS-CoV-2 = assay: Antiviral plaque assay in Vero-E6 cells; settings: Severe acute respiratory syndrome coronavirus 2, Vero C1008, read-out: EC50 (95% CI), SARS-CoV-2 B.1.351 (Beta), Vero-E6
[1] = tested on: −1 PRF signal of SARS-CoV-2
B.1.1.7 SARS-CoV-2 = tested on: B.1.1.7 SARS-CoV-2

| SMILES | EC50 (SARS-CoV-2) | -1PRF inhibition with mutated binding pocket [1] | change in the EC50s after 11 passages in presence of geneticin (B.1.1.7 SARS-CoV-2) |
| --- | --- | --- | --- |
| CN[C@@H]1[C@@H](O)[C@@H](O[C@@H]2[C@@H](O)[C@H](O[C@H]3O[C@H]([C@@H](C)O)[C@@H](O)[C@H](O)[C@H]3N)[C@@H](N)C[C@H]2N)OC[C@]1(C)O [Geneticin] | 129 µM | significant loss of -1PRF inhibition | did not observe any significant change in the EC50s |
| CCNCC1CCN(c2c(F)cc3c(=O)c(C(=O)O)cn(CC)c3c2F)C1 (stereo not shown) [Merafloxacin] |  | significant loss of -1PRF inhibition |  |

From article PMC9617636 (Antiviral Research, 2022)
